{"source": "ChEMBL document CHEMBL1128909", "about": "“Catechol based inhibitors of 15-lipoxygenase” (Bioorg Med Chem Lett, 1996)", "key": {"[1]": {"target": "T1, Polyunsaturated fatty acid lipoxygenase ALOX12 (Homo sapiens, UniProt P18054)", "T1 sequence (P18054 whole entry)": "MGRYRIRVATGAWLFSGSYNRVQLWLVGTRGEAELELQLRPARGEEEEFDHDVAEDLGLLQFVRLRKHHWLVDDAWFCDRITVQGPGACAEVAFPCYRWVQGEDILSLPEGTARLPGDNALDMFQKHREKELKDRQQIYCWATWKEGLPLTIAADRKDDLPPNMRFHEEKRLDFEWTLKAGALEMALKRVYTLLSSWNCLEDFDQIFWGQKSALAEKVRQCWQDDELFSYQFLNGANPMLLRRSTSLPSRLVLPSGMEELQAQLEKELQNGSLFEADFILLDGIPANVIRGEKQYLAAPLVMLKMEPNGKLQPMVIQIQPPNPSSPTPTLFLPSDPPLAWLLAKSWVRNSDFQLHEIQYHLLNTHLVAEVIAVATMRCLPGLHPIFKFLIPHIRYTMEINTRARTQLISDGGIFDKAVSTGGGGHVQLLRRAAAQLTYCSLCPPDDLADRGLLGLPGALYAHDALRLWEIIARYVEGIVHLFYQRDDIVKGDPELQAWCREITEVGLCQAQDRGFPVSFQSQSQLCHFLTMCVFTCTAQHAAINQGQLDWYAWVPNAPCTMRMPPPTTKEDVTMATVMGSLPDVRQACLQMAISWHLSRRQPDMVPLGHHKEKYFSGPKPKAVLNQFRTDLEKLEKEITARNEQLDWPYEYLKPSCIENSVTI", "experiment": "Inhibitory activity against human platelet 12-lipoxygenase"}, "[2]": {"target": "T2, Polyunsaturated fatty acid 5-lipoxygenase (Rattus norvegicus, UniProt P12527)", "T2 sequence (P12527 whole entry)": "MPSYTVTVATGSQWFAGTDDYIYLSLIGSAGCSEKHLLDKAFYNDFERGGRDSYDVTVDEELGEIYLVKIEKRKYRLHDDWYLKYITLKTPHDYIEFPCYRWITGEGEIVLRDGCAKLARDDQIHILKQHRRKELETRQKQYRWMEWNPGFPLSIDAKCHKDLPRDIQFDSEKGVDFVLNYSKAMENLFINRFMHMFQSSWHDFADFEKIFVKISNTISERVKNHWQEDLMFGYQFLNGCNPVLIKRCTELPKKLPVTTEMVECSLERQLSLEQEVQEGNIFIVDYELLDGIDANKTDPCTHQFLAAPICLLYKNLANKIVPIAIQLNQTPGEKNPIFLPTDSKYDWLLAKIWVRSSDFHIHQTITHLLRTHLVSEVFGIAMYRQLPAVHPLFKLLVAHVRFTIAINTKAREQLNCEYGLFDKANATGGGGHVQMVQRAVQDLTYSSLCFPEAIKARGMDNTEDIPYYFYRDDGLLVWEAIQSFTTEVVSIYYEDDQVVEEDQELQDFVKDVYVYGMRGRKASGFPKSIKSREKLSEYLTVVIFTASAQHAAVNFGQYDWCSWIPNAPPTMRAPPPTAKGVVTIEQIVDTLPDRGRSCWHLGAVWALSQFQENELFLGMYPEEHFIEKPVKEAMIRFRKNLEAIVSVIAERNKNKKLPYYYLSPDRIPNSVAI", "experiment": "Inhibitory activity against rat basophilic leukemia cell 5-lipoxygenase (5-LO)"}}}
{"smiles": "O=C(Nc1ccc(CCc2ccc(O)c(O)c2)cc1)c1ccccc1O", "values": [{"measurement": "IC50", "setting": "[1]", "value": 5, "unit": "µM"}, {"measurement": "IC50", "setting": "[2]", "value": 0.28, "unit": "µM"}]}
